Data: patent US20250090540A1, “PI3K-ALPHA INHIBITORS AND METHODS OF USE THEREOF” (Relay Therapeutics, Inc., priority 2021, published 2025)

target: H1047R PIK3CA enzyme (Homo sapiens, UniProt P42336, H1047R); assay: ADP-Glo Biochemical PIK3CA Kinase Assay; conditions: not given
Protocol: Compounds to be assayed were plated in 16 doses of 1:2 serial dilutions (20 nL volume each well) on a 1536-well plate, and the plate warmed to room temperature. PIK3CA enzyme (e.g. H1047R, E542K, E545K, or wild-type) (1 μL of 2 nM solution in Enzyme Assay Buffer (comprising 50 mM HEPES pH 7.4, 50 mM NaCl, 6 mM MgCl2, 5 mM DTT and 0.03% CHAPS)) was added and shaken for 10 seconds and preincubated for 30 minutes. To the well was added 1 μL of 200 μM ATP and 20 μM of diC8-PIP2 in Substrate Assay Buffer (50 mM HEPES pH7.4, 50 mM NaCl, 5 mM DTT and 0.03% CHAPS) to start the reaction, and the plate was shaken for 10 seconds, then spun briefly at 1500 rpm, and then incubated for 60 minutes at room temperature. The reaction was stopped by adding 2 μL of ADP-Glo reagent (Promega), and spinning briefly at 1500 rpm, and then incubating for 40 minutes. ADP-Glo Detection reagent (Promega) was added and the plate spun briefly at 1500 rpm, then incubated for 30 minutes.

H1047R PIK3CA enzyme, sequence (P42336 whole entry H1047R): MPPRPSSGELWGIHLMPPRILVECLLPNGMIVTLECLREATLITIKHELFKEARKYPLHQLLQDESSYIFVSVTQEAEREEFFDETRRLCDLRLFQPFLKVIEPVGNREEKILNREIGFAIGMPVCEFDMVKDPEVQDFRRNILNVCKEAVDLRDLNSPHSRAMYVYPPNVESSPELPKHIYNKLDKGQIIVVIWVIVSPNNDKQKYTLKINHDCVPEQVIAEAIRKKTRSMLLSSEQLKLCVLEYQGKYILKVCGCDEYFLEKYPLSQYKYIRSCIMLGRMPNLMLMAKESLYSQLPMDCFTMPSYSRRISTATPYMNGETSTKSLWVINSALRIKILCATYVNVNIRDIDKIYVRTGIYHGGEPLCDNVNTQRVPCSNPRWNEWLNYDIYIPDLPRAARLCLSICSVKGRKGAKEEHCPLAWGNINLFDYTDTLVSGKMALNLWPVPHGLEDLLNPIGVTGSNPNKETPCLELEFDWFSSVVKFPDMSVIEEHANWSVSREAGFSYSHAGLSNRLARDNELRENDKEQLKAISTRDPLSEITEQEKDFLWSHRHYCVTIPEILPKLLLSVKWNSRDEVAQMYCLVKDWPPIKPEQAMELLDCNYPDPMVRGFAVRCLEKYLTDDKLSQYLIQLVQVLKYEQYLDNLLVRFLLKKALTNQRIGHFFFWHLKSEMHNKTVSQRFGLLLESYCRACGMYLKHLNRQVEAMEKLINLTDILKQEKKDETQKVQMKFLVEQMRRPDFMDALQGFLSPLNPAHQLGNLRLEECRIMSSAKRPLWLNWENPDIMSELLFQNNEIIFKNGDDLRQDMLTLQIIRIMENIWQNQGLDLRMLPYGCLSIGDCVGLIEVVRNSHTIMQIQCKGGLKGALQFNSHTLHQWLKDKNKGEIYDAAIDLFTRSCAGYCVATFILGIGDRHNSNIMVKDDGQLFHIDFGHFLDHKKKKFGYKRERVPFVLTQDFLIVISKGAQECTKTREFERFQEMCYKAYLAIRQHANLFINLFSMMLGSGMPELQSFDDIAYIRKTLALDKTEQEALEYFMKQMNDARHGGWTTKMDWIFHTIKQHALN
H1047R PIK3CA enzyme, sequence (P27986 whole entry partner): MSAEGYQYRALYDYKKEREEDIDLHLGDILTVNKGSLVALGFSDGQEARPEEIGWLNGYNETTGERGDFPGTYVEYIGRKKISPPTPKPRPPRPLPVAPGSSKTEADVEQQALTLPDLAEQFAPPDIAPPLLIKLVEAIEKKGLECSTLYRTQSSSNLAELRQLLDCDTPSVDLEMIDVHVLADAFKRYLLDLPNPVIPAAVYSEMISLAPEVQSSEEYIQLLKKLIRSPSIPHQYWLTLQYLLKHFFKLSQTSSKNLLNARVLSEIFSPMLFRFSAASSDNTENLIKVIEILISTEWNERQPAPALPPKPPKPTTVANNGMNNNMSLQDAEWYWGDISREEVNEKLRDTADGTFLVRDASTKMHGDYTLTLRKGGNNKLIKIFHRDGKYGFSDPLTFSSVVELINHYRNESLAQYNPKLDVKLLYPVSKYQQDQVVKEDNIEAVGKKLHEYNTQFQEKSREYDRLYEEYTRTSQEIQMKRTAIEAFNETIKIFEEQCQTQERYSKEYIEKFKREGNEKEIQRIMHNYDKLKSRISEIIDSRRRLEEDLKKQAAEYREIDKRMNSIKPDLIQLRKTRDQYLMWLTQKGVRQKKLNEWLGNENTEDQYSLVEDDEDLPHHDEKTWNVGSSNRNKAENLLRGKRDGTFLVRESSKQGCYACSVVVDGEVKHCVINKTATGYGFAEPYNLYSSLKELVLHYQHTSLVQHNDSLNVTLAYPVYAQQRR

IC50 [µM]	SMILES
10 to 100	O=C(Nc1cccnc1NC1CCCCC1)c1csc2ccccc12 [I-153]
10 to 100	CNC(=O)c1cnc(Nc2ccccc2C)c(NC(=O)c2cc(F)cc(S(N)(=O)=O)c2)c1 [I-389]
10 to 100	CNC(=O)c1cnc(Nc2ccccc2C)c(NC(=O)c2cc(C)n(C(F)F)n2)c1 [I-369]
10 to 100	Cc1ccccc1N[C@H]1CCN(C(=O)C2(O)CC2)C[C@H]1C(=O)Nc1cc(F)cc(C(F)(F)F)c1 (racemic) [I-227]
10 to 100	Cc1ccccc1Nc1ncc(-c2cnn(C)c2)cc1NC(=O)c1ccc(S(C)(=O)=O)cc1 [I-123]
0.5 to 1	Cc1ccccc1Nc1ncc(-c2cnn(CCO)c2)cc1NC(=O)c1cc(F)cc(C(F)(F)F)c1 [I-147]
1 to 10	Cc1ccccc1Nc1ncc(-c2ccn[nH]2)cc1NC(=O)c1cc(F)cc(C(F)(F)F)c1 [I-74]
10 to 100	CNC(=O)c1cnc(Nc2ccccc2)c(N)c1 [I-31]
10 to 100	O=C(Nc1cccc(=O)n1Cc1ccccc1Cl)c1csc2ccccc12 [I-807]
1 to 10	CNC(=O)c1cnc(Nc2ncccc2C)c(NC(=O)c2cc(F)cc(C(F)(F)F)c2)c1 [I-269]
10 to 100	CNC(=O)c1cnc(Nc2ccccc2C)c(NC(=O)c2cc(C(F)(F)F)cc(C(F)(F)F)c2)c1 [I-177]
10 to 100	CNC(=O)c1cnc(Nc2ccccc2C)c(NC(=O)Cc2cc(C)cc(F)c2)c1 [I-373]
1 to 10	Cc1cnnc(NC(=O)c2cnc(Nc3ccccc3C)c(NC(=O)c3cc(F)cc(C(F)(F)F)c3)c2)c1 [I-264]
10 to 100	CNC(=O)c1cnc(Nc2ccccc2C)c(NC(=O)c2csc(Cl)c2Cl)c1 [I-213]
10 to 100	Cc1ccccc1Nc1ncc(-c2cnn(C)c2)cc1NC(=O)c1ccc(OC(F)(F)F)cc1 [I-122]
10 to 100	CNC(=O)c1cnc(Nc2ccccc2C)c(NC(=O)c2cnn(C)c2C(F)(F)F)c1 [I-385]
10 to 100	Cc1ccccc1Nc1ncc(-c2cnn(C)c2)cc1NC(=O)c1cc2ccccc2s1 [I-131]
10 to 100	CNC(=O)CN1CC(=O)N[C@H](c2cc(F)ccc2Cl)[C@H]1C(=O)NC1CCCC(C(F)(F)F)C1 (mixture of isomers) [I-825, trans-3-(2-chloro-5-fluorophenyl)-1-[(methylcarbamoyl)methyl]-5-oxo-N-[3-(trifluoromethyl)cyclohexyl]piperazine-2-carboxamide]
1 to 10	Cc1ccccc1Nc1ncc(C(=O)N[C@@H]2CCN(C)C2)cc1NC(=O)c1cc(F)cc(C(F)(F)F)c1 (stereo in doubt) [I-64]

IC50 [µM]	SMILES
1 to 10	CNC(=O)c1cnc(N2C[C@H]3C[C@H]3c3ccccc32)c(NC(=O)c2csc3ccccc23)c1 (racemic) [I-253]
1 to 10	CNC(=O)c1cnc(N2CCC(C)c3ccccc32)c(NC(=O)c2cc(F)cc(C(F)(F)F)c2)c1 (centres unmarked) [I-282]
1 to 10	Cc1ccccc1Nc1cnccc1NC(=O)c1csc2ccccc12 [I-221]
10 to 100	CNC(=O)c1cnc(Nc2ccccc2C)c(NCc2cc(F)cc(C(F)(F)F)c2)c1 [I-85]
1 to 10	Cc1ccccc1Nc1ncc(-c2cnn(C)c2)cc1NC(=O)c1csc2ccc(Cl)cc12 [I-145]
1 to 10	COC(=O)c1cnc(Nc2ccccc2C)c(NC(=O)c2cc(F)cc(C(F)(F)F)c2)c1 [I-3]
0.5 to 1	Cc1ccccc1Nc1ncc(N2CCNCC2)cc1NC(=O)c1cc(F)cc(C(F)(F)F)c1 [I-268]
1 to 10	Cc1ccccc1Nc1ncc(N2CCN(C(=O)OC(C)(C)C)CC2)cc1NC(=O)c1cc(F)cc(C(F)(F)F)c1 [I-270]
10 to 100	CNC(=O)c1cnc(Nc2ccccc2C)c(NC(=O)Cc2cn(C)c3ccccc23)c1 [I-167]
1 to 10	Cc1ccc(Nc2ncc(C(=O)NCc3nccs3)cc2NC(=O)c2csc3ccccc23)cc1 [I-225]
10 to 100	Cc1ccccc1Nc1ncc(-c2cnn(C)c2)cc1NC(=O)c1cccc(N(C)C)c1 [I-120]
1 to 10	CC1CCc2ccccc2N1c1ncc(C(=O)NCc2nccs2)cc1NC(=O)c1csc2ccccc12 (centres unmarked) [I-217]
10 to 100	CNC(=O)c1cnc(Nc2ccccc2C)c(N(S(=O)(=O)c2ccc(F)cc2C)S(=O)(=O)c2ccc(F)cc2C)c1 [I-10]
10 to 100	CNC(=O)c1cnc(Nc2ccccc2C)c(NC(=O)c2ccc3c(n2)CCCN3)c1 [I-205]
10 to 100	CNC(=O)c1cnc(Nc2ccccc2CN)c(NC(=O)c2csc3ccccc23)c1 [I-214]
10 to 100	CNC(=O)c1cnc(Nc2ccccc2C)c(NC(=O)c2cccc(F)c2)c1 [I-143]
0.5 to 1	Cc1ccccc1Nc1ncc(-c2ccccc2C#N)cc1NC(=O)c1cc(F)cc(C(F)(F)F)c1 [I-83]
10 to 100	CNC(=O)c1cnc(Nc2ccccc2C)c(NC(=O)c2cc3c(F)cc(F)cc3[nH]2)c1 [I-5]
1 to 10	CNC(=O)c1cnc(Nc2ccccc2C)c(NC(=O)c2csc3cc(C)ccc23)c1 [I-354]

same assay, conditions: ADP-Glo biochemical PIK3CA kinase assay

IC50 [µM]	SMILES
10 to 100	CNC(=O)c1cnc(Nc2ccccc2C)c(NC(=O)c2ccc(Cl)c(C)c2F)c1 [I-537]
10 to 100	CNC(=O)c1cnc(Nc2ccccc2C)c(NC(=O)c2cccc3ccn(C)c23)c1 [I-518]
1 to 10	COc1ccnc(CNC(=O)c2cnc(Nc3ccccc3C)c(NC(=O)c3cc(F)cc(C(F)(F)F)c3)c2)c1 [I-720]
1 to 10	O=C(Nc1cnccc1-n1cccn1)c1cc(F)cc(C(F)(F)F)c1 [I-781]
1 to 10	Nc1ncc(C(=O)N[C@H]2C[C@@H](C(N)=O)C2)cc1NC(=O)c1csc2ccccc12 [I-689]
1 to 10	Cc1cc(CC(C)NC(=O)c2cnc(Nc3ccccc3C)c(NC(=O)c3csc4ccccc34)c2)on1 (centres unmarked) [I-614]
1 to 10	CNC(=O)c1cnc(Nc2ccnc3c2ccn3C)c(NC(=O)c2csc3ccccc23)c1 [I-737]
10 to 100	CNC(=O)c1cnc(Nc2ccccc2C)c(NC(=O)CCc2cc(F)ccc2Br)c1 [I-497]
10 to 100	CNC(=O)c1cnc(Nc2ccccc2C)c(NC(=O)c2cn3c(F)cccc3n2)c1 [I-422]
1 to 10	CNC(=O)c1cnc(Nc2ncccc2C(C)C)c(NC(=O)c2csc3ccccc23)c1 [I-731]
1 to 10	Cc1ccccc1Nc1ncc(C(=O)NCc2cn(C)nc2C)cc1NC(=O)c1cc(F)cc(C(F)(F)F)c1 [I-746]
0.5 to 1	CNC(=O)c1cnc(Nc2ccccc2C)c(NC(=O)c2ccc3ncc(Br)n3c2)c1 [I-575]
10 to 100	CNC(=O)c1cnc(Nc2ccccc2C)c(NC(=O)c2nc3ccccn3c2C)c1 [I-427]
10 to 100	CNC(=O)c1cnc(Nc2ccccc2C)c(NC(=O)C2CCC(F)(F)CC2)c1 [I-493]
1 to 10	CCOC(=O)[C@@H]1CC[C@@H](NC(=O)c2cnc(Nc3ccccc3C)c(NC(=O)c3csc4ccccc34)c2)C1 (racemic) [I-654]
10 to 100	CNC(=O)c1cnc(Nc2ccccc2C)c(NC(=O)c2cc(=O)[nH]c3ccccc23)c1 [I-448]
10 to 100	CNC(=O)c1cnc(Nc2ccccc2C)c(NC(=O)c2cn3cccc(Br)c3n2)c1 [I-509]
10 to 100	CNC(=O)c1cnc(Nc2ccccc2C)c(NC(=O)c2cc3c(Cl)cccn3c2)c1 [I-462]
10 to 100	CNC(=O)c1cnc(Nc2ccccc2C)c(NC(=O)C2(c3cccc(Cl)c3)CC2)c1 [I-513]
1 to 10	Nc1cc(C(=O)O)cnc1N1CCOc2ccccc21 [I-632]

IC50 [µM]	SMILES
10 to 100	CNC(=O)c1cnc(Nc2ccccc2C)c(NC(=O)c2cnc(O)cc2C(F)(F)F)c1 [I-416]
1 to 10	CNC(=O)c1cnc(Nc2ccccc2C)c(NC(=O)c2cc(C)cc3cccnc23)c1 [I-419]
1 to 10	CNC(=O)c1cnc(Nc2ccccc2C)c(NC(=O)c2cc(C)cc3cc[nH]c23)c1 [I-423]
0.5 to 1	CNC(=O)c1cnc(Nc2ccccc2C)c(NC(=O)c2cc(F)c(C(F)(F)F)c(F)c2)c1 [I-717]
10 to 100	CNC(=O)c1cnc(Nc2ccccc2C)c(NC(=O)CC(C)Oc2ccccc2)c1 (centres unmarked) [I-482]
10 to 100	CNC(=O)c1cnc(Nc2ccccc2C)c(NC(=O)C2(c3ccc(F)c(F)c3)CC2)c1 [I-481]
10 to 100	CNC(=O)c1cnc(Nc2ccccc2C)c(NC(=O)c2c[nH]c3ccc(Cl)cc23)c1 [I-514]
10 to 100	CNC(=O)c1cnc(Nc2ccccc2C)c(NC(=O)c2cccnc2CS(C)(=O)=O)c1 [I-443]
1 to 10	CNC(=O)c1cnc(Nc2ccccc2C)c(NC(=O)c2csc3cncnc23)c1 [I-551]
1 to 10	Nc1ncc(C(=O)O)cc1NC(=O)c1csc2ccccc12 [I-673]
1 to 10	CNC(=O)c1cnc(Nc2cc(F)ccc2Cl)c(NC(=O)c2csc3ccccc23)c1 [I-775]
1 to 10	Cc1ccccc1Nc1ncc(-c2ccn[nH]2)cc1NC(=O)c1cc(F)cc(C(F)(F)F)c1 [I-767]
1 to 10	CNC(=O)c1cnc(Nc2ccccc2C)c(NC(=O)Cc2ccc3ncccc3c2)c1 [I-558]
1 to 10	COc1cncc(CNC(=O)c2cnc(Nc3ccccc3C)c(NC(=O)c3cc(F)cc(C(F)(F)F)c3)c2)c1 [I-707]
1 to 10	CNC(=O)c1cnc(N2CCC[C@@H]3CCC[C@@H]32)c(NC(=O)c2csc3ccccc23)c1 (single isomer, unassigned) [I-633]
10 to 100	Cc1ccccc1Nc1ncc(C(=O)NCC2CCC(F)(F)C2)cc1NC(=O)c1csc2ccccc12 (centres unmarked) [I-531]
1 to 10	CNC(=O)c1cnc(Nc2ccccc2C)c(NC(=O)Cn2ccccc2=O)c1 [I-646]
1 to 10	CNC(=O)c1cnc(NCCC#N)c(NC(=O)c2cc(F)cc(C(F)(F)F)c2)c1 [I-550]
10 to 100	Cc1cccc(-n2nc(C)cc2NC(=O)c2cc(F)cc(C(F)(F)F)c2)c1 [I-787]
